The subject of series [1] is Escherichia coli. Kind of series: Antibacterial activity against Escherichia coli ATCC 25922 assessed as inhibition of bacterial growth incubated for 16 to 20 hrs by microdilution method. It counts as functional. The conditions noted are these: time 16-20 hrs. A general note: Broth dilution looks for growth in wells or tubes with falling amounts of substance.
Series [2] deals with Staphylococcus aureus. Kind of series: Antibacterial activity against methicillin-resistant Staphylococcus aureus ATCC 43300 assessed as inhibition of bacterial growth incubated for 16 to 20 hrs by microdilution method. The series is classed as functional. The conditions noted are these: time 16-20 hrs.
For series [3], the system named is Staphylococcus aureus. The series can be described thus: Antibacterial activity against methicillin-resistant Staphylococcus aureus ATCC 43300 assessed as inhibition of bacterial growth incubated for 16 to 20 hrs compound conjugated on alpha-helical coiled-coil FF03 peptide by microdilution method. It counts as functional. The conditions noted are these: time 16-20 hrs.

In series [4] the test system is Staphylococcus aureus. The series can be described thus: Bactericidal activity against methicillin-resistant Staphylococcus aureus ATCC 43300 assessed as reduction in bacterial growth at MIC measured for 25 hrs by time kill assay. The series is classed as functional, organism-based.
Series [5] concerns MCF7. Kind of series: Cytotoxicity against human MCF7 cells up to 90 ug/ml measured after 48 hrs compound conjugated on alpha-helical coiled-coil FF03 peptide by CCK8 assay. It counts as cell-based. The conditions noted are these: mcf7, 48 h, dose <=90 µg/ml. A general note: Tetrazolium assays rely on reduction of a dye to a coloured formazan, in cell work by metabolically active cells.

Series [6] deals with Staphylococcus aureus. The series can be described thus: Antibacterial activity against Staphylococcus aureus ATCC 25923 assessed as inhibition of bacterial growth incubated for 16 to 20 hrs by microdilution method. The series is classed as functional. As to conditions: time 16-20 hrs.
In series [7] the test system is Pseudomonas aeruginosa. Kind of series: Antibacterial activity against Pseudomonas aeruginosa ATCC 15442 assessed as inhibition of bacterial growth incubated for 16 to 20 hrs compound conjugated on alpha-helical coiled-coil FF03 peptide by microdilution method. As to conditions: time 16-20 hrs. It counts as functional.
Series [8] relates to Pseudomonas aeruginosa. Kind of series: Antibacterial activity against Pseudomonas aeruginosa ATCC 15442 assessed as inhibition of bacterial growth incubated for 16 to 20 hrs by microdilution method. The series is classed as functional. As to conditions: time 16-20 hrs.
The test system of series [9] is Cell membrane. The series can be described thus: Disruption of cell membrane in methicillin-resistant Staphylococcus aureus ATCC 43300 assessed as complete rupture of bacterial cell surface at 9 ug/ml incubated for 3 hrs by scanning electron microscopy. As to conditions: dose 9.0 µg/ml. It counts as subcellular.
Series [10] deals with Escherichia coli. Kind of series: Antibacterial activity against Escherichia coli ATCC 25922 assessed as inhibition of bacterial growth incubated for 16 to 20 hrs compound conjugated on alpha-helical coiled-coil FF03 peptide by microdilution method. The series is classed as functional. As to conditions: time 16-20 hrs.
The test system of series [11] is HEK293. The series can be described thus: Cytotoxicity against human HEK293 cells up to 90 ug/ml measured after 48 hrs compound conjugated on alpha-helical coiled-coil FF03 peptide by CCK8 assay. It counts as cell-based. As to conditions: hek293, 48 h, dose <=90 µg/ml.
The test system of series [12] is Staphylococcus aureus. The series can be described thus: Antibacterial activity against Staphylococcus aureus ATCC 25923 assessed as inhibition of bacterial growth incubated for 16 to 20 hrs compound conjugated on alpha-helical coiled-coil FF03 peptide by microdilution method. The conditions noted are these: time 16-20 hrs. It counts as functional.
Series [13] has as its system MCF7. Kind of series: Cytotoxicity against human MCF7 cells up to 90 ug/ml measured after 48 hrs by CCK8 assay. The series is classed as cell-based. As to conditions: mcf7, 48 h, dose <=90 µg/ml.
The nature of series [14]: Hemolytic activity in human red blood cells at 100 ug/ml incubated for 45 mins compound conjugated on alpha-helical colied-coil FF03 peptide. It counts as ADME, cell-based, Erythrocyte. As to conditions: red blood cells (erythrocytes), at 100 µg/mL, read-out: Activity.
The subject of series [15] is HEK293. Kind of series: Cytotoxicity against human HEK293 cells up to 90 ug/ml measured after 48 hrs by CCK8 assay. It counts as cell-based. The conditions noted are these: hek293, 48 h, dose <=90 µg/ml.
Series [16] in a line: Hemolytic activity in human red blood cells at 100 ug/ml incubated for 45 mins. It counts as ADME, cell-based, Erythrocyte. The conditions noted are these: red blood cells (erythrocytes), at 100 µg/mL, read-out: Activity.
For series [17], the system named is Staphylococcus aureus. Kind of series: Bactericidal activity against methicillin-resistant Staphylococcus aureus ATCC 43300 assessed as reduction in bacterial growth at MIC compound conjugated on alpha-helical coiled-coil FF03 peptide measured within 5 hrs by time kill assay. It counts as functional, organism-based. As to conditions: time hrs <=5.

Converted amounts (≈) assume the structure as drawn. The source made the active and inactive calls. The rule behind the calls is not given here. Residues, ends and D or L forms follow the SMILES beside them. A value given as a limit tells only on which side of the number the result lay.

For orientation: MIC means the least concentration at which growth counts as inhibited. Consider `CC(C)C[C@H](NC(=O)[C@@H](N)CCCNC(=N)N)C(=O)N1CCC[C@H]1C(=O)N[C@@H](Cc1c[nH]c2ccccc12)C(=O)N[C@@H](CCCNC(=N)N)C(=O)N[C@@H](Cc1c[nH]c2ccccc12)C(=O)N1CCC[C@H]1C(=O)N[C@@H](CCCNC(=N)N)C(=O)N[C@@H](CCCNC(=N)N)C(=O)N1CCC[C@H]1C(=O)N[C@@H](Cc1c[nH]c2ccccc12)C(=O)N[C@@H](CCCNC(=N)N)C(=O)N[C@@H](CCCNC(=N)N)C(=O)O` (H-RLPWRWPRRPWRR-OH), for which the MIC in series [1] amounted to 130 µM (≈ 250 µg/mL); in series [2], 130 µM (≈ 250 µg/mL); in series [3] it was 1.75 µM (≈ 3.36 µg/mL); in [6], 65.2 µM (≈ 125 µg/mL); in [7], 1.36 µM (≈ 2.61 µg/mL); in [8], 65.2 µM (≈ 125 µg/mL). Also, the MIC is 2.34 µM (≈ 4.49 µg/mL) in series [10] and 0.97 µM (≈ 1.86 µg/mL) in series [12]. For the same molecule, the outcome in series [4], in series [9] and in [17] was Active. Also, the Activity result in series [5], in [11], in [13] and in [15] was “Non-Toxic” in each case. Also, the hemolysis at 0.75 h, 100 ug/ml in series [14] and in series [16] was below 15% in each case.

For the molecule `COc1cc(Cc2cnc(N)nc2N)cc(OC)c1OC` [TRIMETHOPRIM], in series [2], the MIC was found to be 2 µM (≈ 0.581 µg/mL).

On to `CC(=O)NC[C@H]1CN(c2ccc(N3CCOCC3)c(F)c2)C(=O)O1` [LINEZOLID], for which the MIC was 4 µM (≈ 1.35 µg/mL) in [2] and 1.5 µM (≈ 0.506 µg/mL) in [6].

With `CN[C@H](CC(C)C)C(=O)N[C@H]1C(=O)N[C@@H](CC(N)=O)C(=O)N[C@H]2C(=O)N[C@H]3C(=O)N[C@H](C(=O)N[C@H](C(=O)O)c4cc(O)cc(O)c4-c4cc3ccc4O)[C@H](O)c3ccc(c(Cl)c3)Oc3cc2cc(c3O[C@@H]2O[C@H](CO)[C@@H](O)[C@H](O)[C@H]2O[C@H]2C[C@](C)(N)[C@H](O)[C@H](C)O2)Oc2ccc(cc2Cl)[C@H]1O` [VANCOMYCIN], the MIC turned out to be 0.5 µM (≈ 0.725 µg/mL) in [2] and 1.38 µM (≈ 2 µg/mL) in [6].

Regarding GENTAMICIN, the MIC in series [8] came out at 1.63 µM.

For the molecule `NC[C@H]1O[C@H](O[C@H]2[C@H](O)[C@@H](O[C@H]3O[C@H](CO)[C@@H](O)[C@H](N)[C@H]3O)[C@H](N)C[C@@H]2N)[C@H](O)[C@@H](O)[C@@H]1O` [KANAMYCIN], the MIC in series [2] is above 128 µM.

For the molecule `CC[C@H]1OC(=O)[C@H](C)[C@@H](O[C@H]2C[C@@](C)(OC)[C@@H](O)[C@H](C)O2)[C@H](C)[C@@H](O[C@@H]2O[C@H](C)C[C@H](N(C)C)[C@H]2O)[C@](C)(O)C[C@@H](C)C(=O)[C@H](C)[C@@H](O)[C@]1(C)O` [ERYTHROMYCIN], the MIC in [2] was above 128 µM.
